The source of these data is patent US11007169B2, “Cis-gnetin H and trans-gnetin H as therapeutic agents” (MIDDLE TENNESSEE STATE UNIVERSITY, priority 2014, dated 2021).

The subject of data set [1] is A549 cells (human lung carcinoma). Put plainly: Inhibition of cell proliferation, AlamarBlue fluorescent assay, A549. It is filed as cell-based. The conditions noted are these: for inhibition at 10 µM: 48-hours treatment; for IC50: 48 hours, AlamarBlue, cancer cell line. How it is done:
(§1) The cancer cell lines used in this study included human lung carcinoma (A549), human breast carcinoma (BT20 and MCF-7) and human osteosarcoma (U2OS), with the normal cell lines human peripheral lung epithelial cells (HPL1A) and human mammary epithelial cells (HMEC) serving as controls. A549, BT20, MCF-7, U2OS and HMEC cells were purchased from American Type Culture Collection (ATCC, USA), and HPL1A cells were obtained from Nagoya University, Japan. A549 and BT20 were grown in RPMI-1640 (Sigma), MCF-7 was grown in Dulbecco's Modified Eagle Medium (DMEM) (Sigma) supplemented with 0.01 mg/ml human recombinant insulin (Sigma), U2OS and HMEC were grown in McCoy's 5A (ATCC), and HPL1A was grown in DMEM/F-12K (Sigma). The mediums were supplemented with 10% Fetal Bovine Serum (FBS) (Gibco), 1% penicillin and streptomycin and incubated in a humidified atmosphere with 5% CO2 at 37° C.
(§2) The proliferation inhibition potential of cis- and trans-gnetin H was determined by a fluorescence dye staining method. Cells were seeded in a 96-well tissue culture-treated plate (BD Falcon) at a density of 4000 cells/well, and treated with cis- or trans-gnetin H for 48 hours. AlamarBlue dye (Invitrogen) was used to assess the viability of cells according to the manufacturer's instructions; the fluorescent intensity was read on a SpectraMax M2e microplate reader (Molecular Devices Inc.).
(§3) For the determination of IC50 values, cells were treated with a serial dilution (320 μM, 100 μM, 32 μM, 10 μM, 3.2 μM, and 0.32 μM) of cis- or trans-gnetin H for 48 hours. Cell viability was determined with AlamarBlue dye (Invitrogen) and the IC50 values were calculated using non-linear regression analysis.
(The colour change of resazurin is a common sign of viable cells or microbes.)

Data set [2] deals with BT20 cells (human breast carcinoma). As to the kind of experiment: Inhibition of cell proliferation, AlamarBlue fluorescent assay, BT20. It is filed as cell-based. The conditions noted are these: for inhibition at 10 µM: BT-20, 10 uM, 48-hours treatment; for IC50: BT-20, 48 hours, AlamarBlue, cancer cell line. How it is done: as §1, §2, §3
The subject of data set [3] is U2OS cells (human osteosarcoma). As to the kind of experiment: Inhibition of cell proliferation, AlamarBlue fluorescent assay, U2OS. It is filed as cell-based. The conditions noted are these: 48 hours, cancer cell line. How it is done:
as §1
The proliferation inhibition potential of cis- and trans-gnetin H was determined by a fluorescence dye staining method. Cells were seeded in a 96-well tissue culture-treated plate (BD Falcon) at a density of 4000 cells/well, and treated with cis- or trans-gnetin H for 48 hours. AlamarBlue dye (Invitrogen) was used to assess the viability of cells according to the manufacturer's instructions; the fluorescent intensity was read on a SpectraMax M2e microplate reader (Molecular Devices Inc.). […]

The test system of data set [4] is HPL1A cells (human peripheral lung epithelial cells). As to the kind of experiment: Inhibition of cell proliferation, AlamarBlue fluorescent assay, HPL1A normal control. The format is cell-based. The conditions noted are these: for inhibitory effects on normal HPL1A cells: 10 uM, up to 48 hours; for IC50: Homo sapiens, HPL1A, 48 hours, AlamarBlue, normal cell line. How it is done:
as §1, §2, §3

The test system of data set [5] is mitochondrial cytochrome c in BT20 cells. As to the kind of experiment: Analysis of cytochrome c by flow cytometry, BT20. The conditions noted are these: 100 μM, 24 hours. It is filed as cell-based, human. The protocol: A549 and BT20 cells were seeded in a 96-well plate (BD Falcon) at a density of 8000 cells/well and treated with 100 μM of cis- or trans-gnetin H for 24 hours. The expression of cytochrome c was evaluated using the FlowCellect Cytochrome c Kit (Millipore) according to the manufacturer's instructions. Cells were stained with either Anti-IgG1-FITC Isotype control or Anti-Cytochrome c-FITC, and data was acquired and analyzed using the Guava Flow Cytometer (Millipore).

Data set [6] relates to PMA-differentiated THP-1 macrophages. Put plainly: Cell viability Alamar Blue assay, PMA-differentiated THP-1. The format is cell-based, human. The settings on record: for viability of PMA-differentiated THP-1 cells: 3, 6, 13, 25, 50, 100 μM, 24 h treatment. How it is done:
(§4) THP-1 cells were maintained in RPMI 1640 medium supplemented with 10% complement-inactivated FBS and 1% penicillin/streptomycin (complete culture medium) at 37° C. with 5% CO2 supplemented. Cell concentrations were adjusted to desired concentrations for each experiment by centrifugation at 500×g for 5 min and resuspended in complete culture medium with 100 nM of PMA. Cell concentration was adjusted to 5×10^5 cells/ml for all assays and 2.5×10^5 cells/ml were used for NF-κB nuclear translocation assay. Cells were seeded onto 96-, 24-, or 12-well plates and incubated for 48 to 72 h to allow for differentiation. Cells were washed with serum-free RPMI 1640 medium before each experiment to remove the undifferentiated cells.
Differentiated THP-1 cells were treated with various concentrations of cis- and trans-gnetin H and 1 μM of dexamethasone for 24 h. Following treatment, the cell supernatants were replaced with culture medium containing 1× Alamar Blue reagent and incubated for an additional 20-24 h. Cell viability was assessed by measuring Relative Fluorescent Units (RFU) on the SpectraMax M2e microplate reader (Molecular Devices Inc., Sunnyvale, Calif., USA) at Ex 560 nm and Em 590 nm. The results were expressed as a percentage, relative to untreated control cells (FIG. 9). Untreated and LPS-treated cells were tested for the effect of DMSO as vehicle control.
Differentiated THP-1 cells were pretreated with various concentrations of cis-gnetin H, trans-gnetin H, or 1 μM of dexamethasone for 1 h and stimulated with 20 ng/ml of LPS for 4 h. Dexamethasone is a synthetic glucocorticoid that suppresses cytokine response and was used as a positive control (Abraham et al., 2006, J. Exp. Med., 203:1883-9; Steer et al., J. Biol. Chem., 2000, 275(24):18432-40). Supernatants were collected for human cytokine ELISAs and the manufacturer's protocol was followed to assess the cytokine response. Cells remaining after the supernatant collection were tested for relative viability by Alamar Blue cytotoxicity assay as described earlier.

Data set [7] concerns phosphorylated IκB α (Ser32) in LPS-stimulated THP-1 cells. Put plainly: Western blot, IκB α phosphorylation. The format is cell-based, human. The settings on record: concentration-dependent. How it is done: as §4
(§5) Differentiated THP-1 cells were pretreated with various concentrations of cis-gnetin H, trans-gnetin H, or 10 μM of Bay 11-7082 for 1 h and stimulated with 1 μg/ml of LPS for 15 min. Cells were lysed with radio-immunoprecipitation assay (RIPA; 1% Triton X-100, 0.5% Sodium deoxycholate, 0.1% sodium dodecyl sulfate, 150 mM sodium chloride, and 50 mM Tris-chloride) lysis buffer that contained protease and phosphatase inhibitor cocktail. Cell lysates were then tested for protein concentration using a BCA protein assay, and diluted with RIPA lysis buffer to normalize protein concentration in all samples. […]

The test system of data set [8] is phosphorylated p65 (Ser536) in LPS-stimulated THP-1 cells. Put plainly: Western blot, p65 phosphorylation. It is filed as cell-based, human. The protocol:
as §4, §5

Data set [9] relates to phosphorylated IKK α/β (Ser176/180) in LPS-stimulated THP-1 cells. Put plainly: Western blot, IKK β phosphorylation. The format is cell-based, human. The protocol: as §4, §5
For orientation: A western blot detects proteins with antibodies after separation by electrophoresis.

The inhibition is the percentage by which the read-out fell short of the control. Low values mean a weak effect, high ones a strong effect. The IC50 is the concentration at which inhibition is half-maximal. High values mean a need for much substance, low ones inhibition by little substance. As to `Oc1ccc(/C=C\c2c3c(cc4c2[C@H](c2cc(O)cc(O)c2)[C@@H](c2ccc(O)cc2)O4)O[C@H](c2ccc(O)cc2)[C@H]3c2cc(O)cc(O)c2)cc1` [cis-gnetin H], the inhibition at 10 µM in data set [1] and in data set [2] was ~99% throughout. Moreover, the IC50 in [1] was determined as 2.8 µM; in [2], 2.15 µM; in data set [3], 9.32 µM; in data set [4], 91 µM. Also, the “inhibitory effects on normal HPL1A cells” value in data set [4] is listed as “no such obvious inhibitory effects”. The “cytochrome c release in BT20” value in data set [5] is recorded as “release of mitochondrial cytochrome c”. Also, the “viability of PMA-differentiated THP-1 cells” value in [6] is reported as “Neither cis- nor trans-gnetin H affected the viability of the cells”. Also, in data set [6] (pretreatment 12.5, 25, 50 μM and LPS), the “cell viability with LPS” value was “no effect on cell viability”. For the same compound, the “IκB α phosphorylation” value in data set [7] is on record as “significantly inhibited”. Further, the p65 phosphorylation result in data set [8] (only at the highest concentration, 50 μM) is listed as “significantly inhibited”. Besides, the “IKK β phosphorylation” value in data set [9] is on record as “significantly inhibited”.
Consider `Oc1ccc(/C=C/c2c3c(cc4c2[C@H](c2cc(O)cc(O)c2)[C@@H](c2ccc(O)cc2)O4)O[C@H](c2ccc(O)cc2)[C@H]3c2cc(O)cc(O)c2)cc1` [trans-gnetin H], for which the inhibition at 10 µM in data set [1] and in data set [2] was ~99% throughout. Also, the IC50 in [1] worked out at 2.6 µM; in [2], 1.35 µM; in data set [3], 3.1 µM; in data set [4], 72 µM. The “inhibitory effects on normal HPL1A cells” value in data set [4] was “no such obvious inhibitory effects”. Further, the “cytochrome c release in BT20” value in data set [5] is on record as “release of mitochondrial cytochrome c”. Also, the “viability of PMA-differentiated THP-1 cells” value in [6] was “Neither cis- nor trans-gnetin H affected the viability of the cells”. Moreover, the “cell viability with LPS relative to untreated control” value in [6] (pretreated at 50 μM and LPS) was “decreased viability”. Further, the “IκB α phosphorylation” value in [7] is recorded as “significantly inhibited”. In [8] (both 15 and 30 μM), the p65 phosphorylation entry is listed as “significantly inhibited”. Besides, in data set [9], the “IKK β phosphorylation” value is recorded as “significantly inhibited”.
